Results on 48 compounds are retold here after ChEMBL document CHEMBL2021911 (Bioorg Med Chem Lett, 2012).

Experiment [1] concerns the target T1, Muscarinic acetylcholine receptor M1 (Homo sapiens, UniProt P11229).
T1 sequence (P11229 whole entry): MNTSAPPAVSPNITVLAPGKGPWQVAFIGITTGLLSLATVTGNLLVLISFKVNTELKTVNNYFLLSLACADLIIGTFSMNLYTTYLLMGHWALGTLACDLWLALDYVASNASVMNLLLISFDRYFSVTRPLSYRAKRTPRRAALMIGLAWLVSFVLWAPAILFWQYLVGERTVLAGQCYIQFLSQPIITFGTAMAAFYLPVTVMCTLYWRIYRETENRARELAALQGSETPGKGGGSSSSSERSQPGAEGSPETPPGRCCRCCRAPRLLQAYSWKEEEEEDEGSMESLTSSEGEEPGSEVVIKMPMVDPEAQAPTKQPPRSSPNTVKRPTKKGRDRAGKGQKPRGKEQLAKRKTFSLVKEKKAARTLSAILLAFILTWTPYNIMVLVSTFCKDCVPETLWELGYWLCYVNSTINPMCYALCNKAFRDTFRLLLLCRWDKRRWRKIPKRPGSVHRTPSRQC
The experiment can be described thus: Agonist activity at human muscarinic M1 receptor. It is filed as functional.

Experiment [2] addresses T2, Muscarinic acetylcholine receptor M1 (Homo sapiens) (UniProt P11229).
T2 sequence (whole entry): T1 sequence (P11229 whole entry)
The experiment is described as follows: Agonist activity at human muscarinic M1 receptor at 30 uM relative to acetylcholine. In kind it is functional.

As to `CCOC(=O)N1[C@@H]2CC[C@H]1C[C@H](NCCNC(=O)NC1CC1)C2`, the EC50 entry in experiment [1] is “Not Active”.

Consider `CCOC(=O)N1C[C@H]2CC[C@@H](C1)[C@H]2NCCNC(=O)c1ccccc1C`, for which the concentration for a half-maximal effect (EC50) in experiment [1] (read-out: EC50) was 170 nM. Also, the Activity in experiment [2] stood at 51%.

With `CCOC(=O)N1C2CCC1CC(N1CC[C@@H](NC(=O)c3ccccc3C)C1)C2` (mixture of isomers), the 50% effective concentration (EC50) in experiment [1] (read-out: EC50) amounted to 1200 nM. This compound yielded an Activity in experiment [2] of 55%.

Consider `CCOC(=O)N1C[C@H]2CC[C@@H](C1)[C@H]2NCCNC(=O)C1CCCCC1`, for which the EC50 in experiment [1] (read-out: EC50) is 1000 nM. The compound also showed an Activity in experiment [2] of 37%.

Consider `CCOC(=O)N1[C@@H]2CC[C@H]1C[C@H](NCCNC(=O)c1ccc[nH]1)C2`, for which the EC50 result in experiment [1] is given as “Not Active”.

Regarding `CCOC(=O)N1[C@@H]2CC[C@H]1C[C@H](NCCNC(=O)N1CCCCC1)C2`, the half-maximal effective concentration (EC50) in experiment [1] (read-out: EC50) worked out at 570 nM. The compound also showed an Activity in experiment [2] of 53%.

As for `CCOC(=O)N1C2CCC1CC(N1CC(NC(=O)c3ccccc3)C1)C2` (mixture of isomers), the 50% effective concentration (EC50) in experiment [1] (read-out: EC50) is 2200 nM. Further, the Activity in experiment [2] stood at 34%.

For the compound `CCOC(=O)N1[C@@H]2CC[C@H]1C[C@H](NCCNC(=O)c1cccs1)C2`, in experiment [1] (read-out: EC50), the half-maximal effective concentration (EC50) came to 1000 nM. In addition, the Activity in experiment [2] came out at 33%.

For `CCOC(=O)N1C2CCC1CC(N1CC[C@H](NC(=O)c3ccccc3)C1)C2` (mixture of isomers), the concentration for a half-maximal effect (EC50) in experiment [1] (read-out: EC50) was 1200 nM. The same compound had an Activity in experiment [2] of 39%.

For the compound `COC(=O)N1[C@@H]2CC[C@H]1C[C@H](NCCNC(=O)c1ccccc1)C2`, in experiment [1] (read-out: EC50), the EC50 is greater than 10000 nM. In experiment [2], this compound gave an Activity of 21%.

`CCOC(=O)N1C[C@H]2CC[C@@H](C1)[C@H]2NCCNC(=O)N1CCCCC1`: in experiment [1] (read-out: EC50), the EC50 was found to be 690 nM. Moreover, in experiment [2], the Activity turned out to be 9%.

As for `CCOC(=O)N1C2CCC1CC(N1CC[C@H](NC(=O)c3ccccc3C)C1)C2` (mixture of isomers), the EC50 in experiment [1] (read-out: EC50) is greater than 10000 nM. In experiment [2], the Activity is 22%.

On to `CCOC(=O)N1[C@@H]2CC[C@H]1C[C@H](NCCNC(=O)c1ccc(F)c(F)c1)C2`, for which the EC50 in experiment [1] (read-out: EC50) stood at 810 nM. For the same compound, in experiment [2], the Activity was found to be 50%.

On to `O=C(NCCN[C@@H]1C[C@H]2CC[C@@H](C1)N2C(=O)Oc1ccccc1)c1ccccc1`, for which, in experiment [1], the EC50 entry is “Not Active”.

On to `CCOC(=O)N1[C@@H]2CC[C@H]1C[C@H](NCCNC(=O)c1ccccc1C(F)(F)F)C2`, for which the EC50 result in experiment [1] is “Not Active”.

For `CCOC(=O)N1C2CCC1CC(N1CCC[C@H](NC(=O)c3ccccc3)C1)C2` (mixture of isomers), the half-maximal effective concentration (EC50) in experiment [1] (read-out: EC50) was greater than 10000 nM. The compound also displayed an Activity in experiment [2] of 12%.

Regarding `CCOC(=O)N1CC[C@H]2[C@H](CCCN2CCNC(=O)c2ccccc2)C1` (relative stereo), the EC50 in experiment [1] (read-out: EC50) was 1200 nM. In experiment [2], this compound came in with an Activity of 13%.

`CCOC(=O)N1[C@@H]2CC[C@H]1C[C@H](NCCNC(=O)N1CCOCC1)C2`: the EC50 in experiment [1] (read-out: EC50) was 2000 nM. The same compound showed an Activity in experiment [2] of 44%.

In the case of `CCOC(=O)N1[C@@H]2CC[C@H]1C[C@H](NCCNC(=O)c1cc(F)cc(F)c1)C2`, the half-maximal effective concentration (EC50) in experiment [1] (read-out: EC50) is 1900 nM. Besides, the Activity in experiment [2] worked out at 43%.

With `CCOC(=O)N1C2CCC1CC(N1CCC[C@H](NC(=O)c3ccccc3C)C1)C2` (mixture of isomers), the EC50 in experiment [1] (read-out: EC50) was 2100 nM. This compound yielded an Activity in experiment [2] of 52%.

As for `CCOC(=O)N1C[C@@H]2C(NCCNC(=O)c3ccccc3C)[C@@H]2C1` (stereo partly specified), the EC50 in experiment [1] (read-out: EC50) was 4100 nM. This compound also had an Activity in experiment [2] of 60%.

As for `CCOC(=O)N1[C@@H]2CC[C@H]1C[C@H](NCCNC(=O)c1cccc(OC)c1)C2`, the concentration giving a half-maximal response (EC50) in experiment [1] (read-out: EC50) worked out at 3600 nM. In addition, in experiment [2], the Activity worked out at 33%.

Consider `CCOC(=O)N1C[C@H]2CC[C@@H](C1)[C@H]2NCCNC(=O)c1cccs1`, for which, in experiment [1] (read-out: EC50), the concentration for a half-maximal effect (EC50) worked out at 170 nM. Besides, in experiment [2], the Activity was 54%.

Regarding `CCOC(=O)N1CC[C@H]2[C@@H](CCCN2CCNC(=O)c2ccccc2)C1` (relative stereo), in experiment [1] (read-out: EC50), the concentration giving a half-maximal response (EC50) came out at 3200 nM. In experiment [2], this compound had an Activity of 13%.

With `CCOC(=O)N1[C@@H]2CC[C@H]1C[C@H](NCCNC(=O)N1[C@H](C)CCC[C@@H]1C)C2`, the concentration giving a half-maximal response (EC50) in experiment [1] (read-out: EC50) stood at 2500 nM. Also, the Activity in experiment [2] worked out at 39%.

On to `C=CCOC(=O)N1[C@@H]2CC[C@H]1C[C@H](NCCNC(=O)c1ccccc1)C2`, for which the EC50 in experiment [1] (read-out: EC50) stood at 2000 nM. For the same compound, in experiment [2], the Activity turned out to be 40%.

`CCOC(=O)N1[C@@H]2CC[C@H]1C[C@H](NCCNC(=O)c1ccc(F)cc1)C2`: the EC50 in experiment [1] (read-out: EC50) is 830 nM. In addition, the Activity in experiment [2] is 54%.

Consider `CCOC(=O)N1C[C@H]2CC[C@@H](C1)[C@H]2NCCNC(=O)c1cccc(OC)c1`, for which the concentration for a half-maximal effect (EC50) in experiment [1] (read-out: EC50) was 240 nM. Besides, the Activity in experiment [2] amounted to 47%.

For the compound `O=C(NCCN[C@@H]1C[C@H]2CC[C@@H](C1)N2C(=O)OCc1ccccc1)c1ccccc1`, the concentration giving a half-maximal response (EC50) in experiment [1] (read-out: EC50) was greater than 10000 nM. The same compound came in with an Activity in experiment [2] of 7%.

On to `CCS(=O)(=O)N1[C@@H]2CC[C@H]1C[C@H](NCCNC(=O)c1ccccc1)C2`, for which the 50% effective concentration (EC50) entry in experiment [1] is “Not Active”.

On to `COC(=O)C12CCC(NCCNC(=O)c3ccccc3)(CC1)CC2`, for which the concentration for a half-maximal effect (EC50) in experiment [1] (read-out: EC50) was 6200 nM. The same compound gave an Activity in experiment [2] of 18%.

As to `CCOC(=O)N1[C@@H]2CC[C@H]1C[C@H](NCCNS(=O)(=O)c1cccc(OC)c1)C2`, the EC50 entry in experiment [1] is “Not Active”.

On to `CCOC(=O)N1[C@@H]2CC[C@H]1C[C@H](NCCNC(=O)c1ccccc1Cl)C2`, for which, in experiment [1] (read-out: EC50), the EC50 turned out to be 2300 nM. In addition, the Activity in experiment [2] stood at 37%.

For `CCC(=O)N1[C@@H]2CC[C@H]1C[C@H](NCCNC(=O)c1ccccc1)C2`, the EC50 entry in experiment [1] is listed as “Not Active”.

For `CCOC(=O)N1CCC(N2CCC[C@@H](NC(=O)c3ccccc3C)C2)CC1`, the EC50 in experiment [1] (read-out: EC50) was found to be 890 nM. For the same compound, the Activity in experiment [2] was determined as 71%.

Regarding `CCOC(=O)N1[C@@H]2CC[C@H]1C[C@H](NCCNC(=O)N1CCCC1)C2`, the concentration giving a half-maximal response (EC50) in experiment [1] (read-out: EC50) is greater than 10000 nM. Besides, the Activity in experiment [2] amounted to 11%.

As to `CCOC(=O)N1C2CCC1CC(N1CC[C@@H](NC(=O)c3ccccc3)C1)C2` (mixture of isomers), the EC50 in experiment [1] (read-out: EC50) was 320 nM. In addition, the Activity in experiment [2] was found to be 62%.

For the compound `CCOC(=O)N1[C@@H]2CC[C@H]1C[C@H](NCCNC(=O)C1CCCCC1)C2`, the EC50 in experiment [1] (read-out: EC50) amounted to 1500 nM. This compound gave an Activity in experiment [2] of 34%.

Consider `CC(C)C(=O)N1[C@@H]2CC[C@H]1C[C@H](NCCNC(=O)c1ccccc1)C2`, for which the EC50 in experiment [1] (read-out: EC50) came out at 5400 nM. The Activity in experiment [2] turned out to be 23%.

As to `CCOC(=O)N1[C@@H]2CC[C@H]1CC(NCCNC(=O)c1ccc(C)c(F)c1)C2` (mixture of isomers), in experiment [1] (read-out: EC50), the EC50 was 470 nM. This compound gave an Activity in experiment [2] of 40%.

With `CCOC(=O)N1[C@@H]2CC[C@H]1C[C@H](NCCNC(=O)c1ccccc1C)C2`, the EC50 in experiment [1] (read-out: EC50) worked out at 1100 nM. For the same compound, the Activity in experiment [2] worked out at 47%.

Consider `CCOC(=O)N1C[C@H]2CC[C@@H](C1)[C@H]2NCCNC(=O)N1CCOCC1`, for which the concentration for a half-maximal effect (EC50) in experiment [1] (read-out: EC50) is greater than 10000 nM. Besides, in experiment [2], the Activity came out at 11%.

As for `CS(=O)(=O)N1[C@@H]2CC[C@H]1C[C@H](NCCNC(=O)c1ccccc1)C2`, the EC50 entry in experiment [1] is listed as “Not Active”.

With `CCOC(=O)N1[C@@H]2CC[C@H]1C[C@H](NCCNC(=O)c1cccc(Cl)c1)C2`, the EC50 in experiment [1] (read-out: EC50) came out at 440 nM. In addition, the Activity in experiment [2] is 63%.

As to `CCCC(=O)N1[C@@H]2CC[C@H]1C[C@H](NCCNC(=O)c1ccccc1)C2`, the EC50 entry in experiment [1] is on record as “Not Active”.

On to `CCOC(=O)N1C[C@H]2CC[C@@H](C1)[C@H]2NCCNC(=O)c1cc(F)cc(F)c1`, for which the half-maximal effective concentration (EC50) in experiment [1] (read-out: EC50) was determined as 200 nM. This compound also displayed an Activity in experiment [2] of 53%.

For the compound `CN(C)C(=O)N1[C@@H]2CC[C@H]1C[C@H](NCCNC(=O)c1ccccc1)C2`, the EC50 result in experiment [1] is on record as “Not Active”.

For the compound `CCOC(=O)N1[C@@H]2CC[C@H]1C[C@H](NCCNC(=O)c1ccncc1)C2`, the concentration giving a half-maximal response (EC50) in experiment [1] (read-out: EC50) is greater than 10000 nM. This compound also had an Activity in experiment [2] of 6%.
